The values that follow come from patent US20200236933A1, “USE OF A NON-IONIC SURFACTANT WHICH IS A POLYOL DERIVATIVE AS A PLANT GROWTH STIMULATING AGENT OR AS AN ADJUVANT” (priority 2017, published 2020).

Data set [1] deals with flat-leaf parsley variety NOVAS. Briefly: Root growth, assays in fields. The format is in vivo, Petroselinum crispum var. neapolitanum. To be noted: seeds immersed 1 h in 2.5% solution; 12 weeks after sowing. Here is the method: In order to test the effect of the invention in conditions of crops in fields, the flat-leaf parsley variety NOVAS (Petroselinum crispum var. neapolitanum) is used.
The seeds are next dried in a heating tunnel at 45° C. for 1 h.
The seeds are mechanically sown (seeder) on strips of four rows each one beside the other to limit as much as possible the variations in soil quality, insulation and temperature. 12 weeks after sowing, 25 parsley plants were taken in order to measure several parameters of the roots: their weight, their length, and their diameter.

In a further data set the test system is strawberry leaves. Briefly: Spreading of an aqueous solution on a leaf. As to conditions: 0.75% solution sprayed on strawberry leaves. The format is in vivo.
In a further data set the test system is parsley plants. The experiment in a line: Protein content of parsley. The format is in vivo. To be noted: 40 ml of 0.75% solution every three days, 23 days. Here is the method:
Each batch consists of four pots. After 23 days of treatment the leaves are cut and an analysis of the amount of protein is carried out.

The subject of another data set is maize seeds. Briefly: Root growth (rootlets) of maize seeds. The format is in vivo. As to conditions: maize seeds immersed 1 h in 2.5% solution; after two days. Here is the method:
The seeds are next dried in a heating tunnel at 45° C. for one hour. Four batch repetitions of 16 seeds are deposited on Petri dishes containing a medium composed of 2% Agar Agar and 98% water.
The Petri dishes are kept at ambient temperature and in darkness.

Data set [2] deals with winter barley (Sobell variety). Briefly: Yield of winter barley in climate controlled chamber. In kind it is in vivo. As to conditions: 3 l/ha of 3% solution sprayed at commencement of tillering. On the procedure: Assays in a climate controlled chamber (temperature 22° C./20° C., photoperiod 16 h/8 h, 25,000 lux) were carried out on winter barley (Sobell variety, Arvalis). The barley was sowed in containers of 1 meter by 1 meter.
The plants were then watered every 2 weeks with the same amount of water for both control batch and treated batch.
The yields were then calculated as the ratio of the weight of harvested seeds to the sowed area. This ratio is expressed in q/ha.

Data set [3] is described as follows: Formation of foam on preparing the mixture. The format is physicochemical. As to conditions: 1% with 1% Cocamidopropyl betaine. Here is the method: The two solutions were next stirred in equivalent manner, the photographs being taken before, immediately after stirring and 1 h after stirring.
Data set [4] can be described thus: Homogenization of the mixture. To be noted: 1% with 2% glycerin colored blue. In kind it is physicochemical. The text has this:
The mixtures were next stirred in equivalent manner. Photographs are taken after stirring.

Data set [5] in a line: pH modification of the mixture. To be noted: increasing concentration of the 2.5% sucrose stearate solution added to a solution at pH 9.4. The format is physicochemical.

Description for strawberry leaves: Strawberry plants in pots are grown in a climate-controlled chamber in the following conditions: 23° C. and a photoperiod of 16 h/8 h.

Turning to sucrose stearate, in data set [1], the “diameter of the taproot, on average greater than the control” value came to 30%; the “roots with a length of more than 10 cm” value amounted to 74%; the “weight of the taproot, on average greater than the control” value is 70%. In addition, in the data set on strawberry leaves, the “distribution of the solution on the leaf (spreading of the drops)” value is “distributed evenly over the leaf” and the “passage of the solution onto the lower face compared with the control batch” value is “much greater passage of the solution onto the lower face”. The “increase in the protein amount compared with the control batch” value in the data set with parsley plants came out at 56%. In addition, the “rootlets on the germinated seeds” value in the data set on maize seeds is “rootlet presence is observed”. In data set [2], this substance yielded a Yield of 67.9 q/ha and a yield increase of 25%. In addition, the “reduction of the volume of foam immediately after stirring” value in data set [3] stood at 30%. In addition, the “homogenization of the mixture” value in data set [4] is on record as “better homogenization of the mixture”. Moreover, the “pH at which the mixture stabilizes” value in data set [5] was 5.25.
